Measured values published in patent publication US12312359B2 (Vitae Pharmaceuticals, LLC, priority 2016, dated 2025).

Assays:
[1] = molecular target: T1, biotinylated wild-type menin and MLL-AF9 fusion protein (menin/MLL binding) (Homo sapiens, UniProt O00255); experiment: Assay 1: menin/MLL binding AlphaLISA assay, wild-type menin; details: Table 30; column head does not say wild-type or mutated menin
T1 construct: made in house; host or cells: menin: E. coli; MLL-AF9-FLAG: HEK293 cells, used as cleared lysate
T1 sequence (O00255 1-610): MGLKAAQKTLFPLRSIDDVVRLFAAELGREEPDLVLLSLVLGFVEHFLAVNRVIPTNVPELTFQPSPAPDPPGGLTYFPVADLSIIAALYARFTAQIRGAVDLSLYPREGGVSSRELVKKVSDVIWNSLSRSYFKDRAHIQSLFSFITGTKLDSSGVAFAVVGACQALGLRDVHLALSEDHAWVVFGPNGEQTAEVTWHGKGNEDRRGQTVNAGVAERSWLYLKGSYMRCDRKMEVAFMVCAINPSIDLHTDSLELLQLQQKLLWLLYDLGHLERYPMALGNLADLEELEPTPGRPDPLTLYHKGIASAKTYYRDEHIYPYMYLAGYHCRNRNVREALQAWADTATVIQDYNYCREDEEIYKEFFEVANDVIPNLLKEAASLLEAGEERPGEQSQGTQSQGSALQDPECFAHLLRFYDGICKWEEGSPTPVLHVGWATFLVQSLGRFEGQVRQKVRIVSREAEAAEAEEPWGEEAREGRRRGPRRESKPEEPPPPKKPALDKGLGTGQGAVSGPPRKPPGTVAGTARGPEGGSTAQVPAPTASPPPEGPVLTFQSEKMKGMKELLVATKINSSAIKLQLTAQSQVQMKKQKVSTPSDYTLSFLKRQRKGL
Outline: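 Compound was preincubated 30 min at room temperature with biotinylated menin (5 nM) and MLL-AF9-FLAG lysate from HEK293 cells, pH 7.4 buffer with 5% DMSO and DTT. Bead-based Alpha signal after 60 min with streptavidin donor and anti-FLAG acceptor beads; four-parameter logistic fit gave IC50.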

[2] = test system: human acute monocytic leukemia cell line MV-4-11; experiment: Assay 2: cell proliferation assay (ATP quantitation, CellTiter-Glo), MV-4-11; assay type: cell-based; details: MV-4-11 cells
Outline: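 Read-out is CellTiter-Glo luminescence quantifying ATP. Compound exposure lasted 72 h at 37° C., 5% CO2, with 1.67×10^4 MV-4-11 cells per well in 10% FBS medium, alongside HL-60 toxicity-control cells.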

**Q.** What does the source list for `Cn1c(-c2cc(F)ccc2Oc2cncnc2N2CCC3(CCN(Cc4ccc5[nH]c(=O)[nH]c5c4)C3)C2)c(C2CC2)ccc1=O` (single isomer, unassigned) [Example 29A, 5-((7-(5-(2-(3-cyclopropyl-1-methyl-6-oxo-1,6-dihydropyridin-2-yl)-4-fluorophenoxy)pyrimidin-4-yl)-2,7-diazaspiro[4.4]nonan-2-yl)methyl)-1,3-dihydro-2H-benzo[d]imidazol-2-one]?
**A.** IC50 [1]: < 100 nM; EC50 ([2]; Homo sapiens, MV4-11, 72 h): < 100 nM

**Q.** Which IC50 [1] does the source give for `CC(C)N(C(=O)c1cc(F)ccc1Oc1cncnc1N1CC2(CCN(C[C@H]3CC[C@H](NC(=O)OC(C)(C)C)CC3)CC2)C1)C(C)C` [Example 99A, tert-butyl ((1r,4r)-4-((2-(5-(2-(diisopropylcarbamoyl)-4-fluorophenoxy)pyrimidin-4-yl)-2,7-diazaspiro[3.5]nonan-7-yl)methyl)cyclohexyl)carbamate] here?
**A.** Its IC50 is < 100 nM.

**Q.** What about the EC50 ([2]; Homo sapiens, MV4-11, 72 h) of the same compound?
**A.** The EC50 was < 100 nM.

**Q.** For `CC(C)c1ncncc1-c1cc(F)ccc1Oc1cnccc1N1CCC2(CCN(Cc3ccc4[nH]c(=O)[nH]c4c3)C2)C1` (stereo not shown) [Example 28, 5-((7-(3-(4-fluoro-2-(4-isopropylpyrimidin-5-yl)phenoxy)pyridin-4-yl)-2,7-diazaspiro[4.4]nonan-2-yl)methyl)-1,3-dihydro-2H-benzo[d]imidazol-2-one], which IC50 [1] is on record?
**A.** Its IC50 is < 100 nM.

**Q.** And the EC50 ([2]; Homo sapiens, MV4-11, 72 h)?
**A.** The EC50 was < 100 nM.

**Q.** Which IC50 [1] does the source give for `Cn1c(-c2cc(F)ccc2Oc2cncnc2N2CCC3(CCN(Cc4ccc5[nH]c(=O)[nH]c5c4)C3)C2)c(C2CC2)ccc1=O` (single isomer, unassigned) [Example 29B, 5-((7-(5-(2-(3-cyclopropyl-1-methyl-6-oxo-1,6-dihydropyridin-2-yl)-4-fluorophenoxy)pyrimidin-4-yl)-2,7-diazaspiro[4.4]nonan-2-yl)methyl)-1,3-dihydro-2H-benzo[d]imidazol-2-one] here?
**A.** The IC50 was < 100 nM.

**Q.** What about the EC50 ([2]; 72 h) of the same compound?
**A.** Its EC50 is 100 to 1000 nM.

**Q.** `CC(C)c1ncncc1-c1cc(F)ccc1Oc1cncnc1N1CC2(CC(N(C)Cc3ccc(C#N)cc3)CO2)C1` (stereo not shown) [Example 181, 4-(((2-(5-(4-fluoro-2-(4-isopropylpyrimidin-5-yl)phenoxy)pyrimidin-4-yl)-5-oxa-2-azaspiro[3.4]octan-7-yl)(methyl)amino)methyl)benzonitrile] was tested. Which IC50 [1] did it give?
**A.** The IC50 was < 100 nM.

**Q.** And the EC50 ([2]; Homo sapiens, MV4-11, 72 h)?
**A.** Its EC50 is 100 to 1000 nM.

**Q.** Which IC50 [1] does the source give for `CC(C)N(C(=O)c1cc(F)ccc1Oc1cncnc1N1CCC2(CC(N)C(Cc3ccc4[nH]c(=O)[nH]c4c3)C2)C1)C(C)C` (single isomer, unassigned) [Example 24B, 2-((4-(7-amino-8-((2-oxo-2,3-dihydro-1H-benzo[d]imidazol-5-yl)methyl)-2-azaspiro[4.4]nonan-2-yl)pyrimidin-5-yl)oxy)-5-fluoro-N,N-diisopropylbenzamide] here?
**A.** Its IC50 is < 100 nM.

**Q.** What about the EC50 ([2]; 72 h) of the same compound?
**A.** Its EC50 is ≥ 1000 nM.

**Q.** `CC(C)CCc1cc(F)ccc1Oc1cncnc1N1CCC2(CCN(Cc3ccc4[nH]c(=O)[nH]c4c3)C2)C1` (stereo not shown) [Example 235, 5-((7-(5-(4-fluoro-2-isopentylphenoxy)pyrimidin-4-yl)-2,7-diazaspiro[4.4]nonan-2-yl)methyl)-1,3-dihydro-2H-benzo[d]imidazol-2-one] was tested. Which IC50 [1] did it give?
**A.** The IC50 was < 100 nM.

**Q.** What about the EC50 ([2]; Homo sapiens, MV4-11, 72 h) of the same compound?
**A.** Its EC50 is 100 to 1000 nM.

**Q.** `CC(C)N(CCO)C(=O)c1cc(F)ccc1Oc1cncnc1N1CCC2(CCN(Cc3ccc4[nH]c(=O)[nH]c4c3)C2)C1` (stereo not shown) [Example 5, 5-fluoro-N-(2-hydroxyethyl)-N-isopropyl-2-((4-(7-((2-oxo-2,3-dihydro-1H-benzo[d]imidazol-5-yl)methyl)-2,7-diazaspiro[4.4]nonan-2-yl)pyrimidin-5-yl)oxy)benzamide] was tested. Which IC50 [1] did it give?
**A.** Its IC50 is < 100 nM.

**Q.** What about the EC50 ([2]; Homo sapiens, MV4-11, 72 h) of the same compound?
**A.** Its EC50 is < 100 nM.

**Q.** With `Cn1c(-c2cc(F)ccc2Oc2cncnc2N2CC3(CCN(CC4CCC(NS(C)(=O)=O)CC4)CC3)C2)c(C2CC2)ccc1=O` (stereo not shown) [Example 80, N-(4-((2-(5-(2-(3-cyclopropyl-1-methyl-6-oxo-1,6-dihydropyridin-2-yl)-4-fluorophenoxy)pyrimidin-4-yl)-2,7-diazaspiro[3.5]nonan-7-yl)methyl)cyclohexyl) methanesulfon-amide] as the compound, how does the IC50 [1] read?
**A.** Its IC50 is < 100 nM.

**Q.** What about the EC50 ([2]; Homo sapiens, MV4-11, 72 h) of the same compound?
**A.** The EC50 was < 100 nM.

**Q.** For `CC(C)N(C(=O)c1cc(F)ccc1Oc1cncnc1N1CC2(CN(CC3CCOCC3)C2)C1)C(C)C` [Example 112, 5-fluoro-N,N-diisopropyl-2-((4-(6-((tetrahydro-2H-pyran-4-yl)methyl)-2,6-diazaspiro[3.3]heptan-2-yl)pyrimidin-5-yl)oxy)benzamide], which IC50 [1] is on record?
**A.** The IC50 was < 100 nM.

**Q.** What about the EC50 ([2]; Homo sapiens, MV4-11, 72 h) of the same compound?
**A.** Its EC50 is < 100 nM.

**Q.** What does the source list for `CC(C)N(C(=O)c1cc(F)ccc1Oc1cncnc1N1CCC2(CC(O)C(Cc3ccc4[nH]c(=O)[nH]c4c3)C2)C1)C(C)C` (single isomer, unassigned) [Example 23A, 5-fluoro-2-((4-(7-hydroxy-8-((2-oxo-2,3-dihydro-1H-benzo[d]imidazol-5-yl)methyl)-2-azaspiro[4.4]nonan-2-yl)pyrimidin-5-yl)oxy)-N,N-diisopropylbenzamide]?
**A.** IC50 [1]: < 100 nM; EC50 ([2]; 72 h): 100 to 1000 nM

**Q.** Which IC50 [1] does the source give for `CCOC(=O)c1ccccc1-c1cc(F)ccc1Oc1cncnc1N1CCC2(CCN(Cc3ccc4[nH]c(=O)[nH]c4c3)C2)C1` (stereo not shown) [Example 223, ethyl 5′-fluoro-2′-((4-(7-((2-oxo-2,3-dihydro-1H-benzo[d]imidazol-5-yl)methyl)-2,7-diazaspiro[4.4]nonan-2-yl)pyrimidin-5-yl)oxy)-[1,1′-biphenyl]-2-carboxylate] here?
**A.** Its IC50 is < 100 nM.

**Q.** What about the EC50 ([2]; Homo sapiens, MV4-11, 72 h) of the same compound?
**A.** The EC50 was 100 to 1000 nM.

**Q.** Which IC50 [1] does the source give for `CCN(C(=O)c1cc(F)ccc1Oc1cncnc1N1CC2(CCN(C[C@H]3CC[C@H](NS(=O)(=O)CC)CC3)CC2)C1)C(C)C` [Example 252, N-Ethyl-2-((4-(7-(((1r,4r)-4-(ethylsulfonamido)cyclohexyl)methyl)-2,7-diazaspiro[3.5]nonan-2-yl)pyrimidin-5-yl)oxy)-5-fluoro-N-isopropylbenzamide] here?
**A.** Its IC50 is < 100 nM.

**Q.** And the EC50 ([2]; Homo sapiens, MV4-11, 72 h)?
**A.** The EC50 was < 100 nM.

**Q.** Which IC50 [1] does the source give for `CC(C)N(C(=O)c1cc(F)ccc1Oc1cncnc1N1CCC2(CC(Cc3ccc(F)cc3)N(CCO)C2)C1)C(C)C` (single isomer, unassigned) [Example 26A, 5-fluoro-2-((4-(8-(4-fluorobenzyl)-7-(2-hydroxyethyl)-2,7-diazaspiro[4.4]nonan-2-yl)pyrimidin-5-yl)oxy)-N,N-diisopropylbenzamide] here?
**A.** The IC50 was < 100 nM.

**Q.** What about the EC50 ([2]; 72 h) of the same compound?
**A.** Its EC50 is 100 to 1000 nM.

**Q.** `CC(C)N(C(=O)c1cc(F)ccc1Oc1cncnc1N1CCC2(CCN(Cc3ccc4[nH]c(=O)[nH]c4c3)C2)C1)C(C)C` (racemic) [Example 1, 5-fluoro-N,N-diisopropyl-2-((4-(7-((2-oxo-2,3-dihydro-1H-benzo[d]imidazol-5-yl)methyl)-2,7-diazaspiro[4.4]nonan-2-yl)pyrimidin-5-yl)oxy)benzamide] was tested. Which IC50 [1] did it give?
**A.** The IC50 was < 100 nM.

**Q.** And the EC50 ([2]; Homo sapiens, MV4-11, 72 h)?
**A.** Its EC50 is < 100 nM.

**Q.** `CCN(C(=O)C(C)C)c1cc(F)ccc1Oc1cncnc1N1CC2(CCN(C[C@H]3CC[C@H](NC(=O)OC(C)(C)C)CC3)CC2)C1` [Example 84, tert-butyl ((1r,4r)-4-((2-(5-(2-(N-ethylisobutyramido)-4-fluorophenoxy)pyrimidin-4-yl)-2,7-diazaspiro[3.5]nonan-7-yl)methyl)cyclohexyl) carbamate] was tested. Which IC50 [1] did it give?
**A.** The IC50 was < 100 nM.

**Q.** And the EC50 ([2]; Homo sapiens, MV4-11, 72 h)?
**A.** The EC50 was < 100 nM.

**Q.** For `CC(C)N(C)C(=O)c1cc(F)ccc1Oc1cncnc1N1CC2(CC(NC[C@H]3CC[C@H](NC(=O)OC(C)(C)C)CC3)C2)C1` [Example 83, tert-butyl ((1r,4r)-4-(((2-(5-(4-fluoro-2-(isopropyl(methyl)carbamoyl)phenoxy)pyrimidin-4-yl)-2-azaspiro[3.3]heptan-6-yl)amino)methyl)cyclohexyl)carbamate], which IC50 [1] is on record?
**A.** The IC50 was < 100 nM.

**Q.** What about the EC50 ([2]; Homo sapiens, MV4-11, 72 h) of the same compound?
**A.** The EC50 was 100 to 1000 nM.
